# How the values were obtained:
# [1] = system: Legionella pneumophila strain Paris; type: cell-based; settings: KDO-N3 4 mM, 12 hours; A488-yne-Cu(I) click 60 min
# S. typhimurium 12023 = test: Metabolic labelling with KDO-N3, click chemistry, fluorescence microscopy; type: cell-based, Salmonella typhimurium; settings: KDO-N3 4 mM, 12 hours; A488-yne-Cu(I) click 60 min
# E. coli 086 = test: as above; type: cell-based, Escherichia coli; settings: KDO-N3 4 mM, 12 hours; A488-yne-Cu(I) click 60 min
# E. coli K12 = test: Metabolic LPS labelling with KDO-N3, Cu(I) click with A488-yne, fluorescence microscopy; type: cell-based, Escherichia coli
# Staphylococcus aureus = test: Metabolic labelling with KDO-N3, click chemistry, fluorescence microscopy (negative control strain); type: cell-based; settings: Gram positive; KDO-N3 4 mM, 12 hours; A488-yne-Cu(I) click 60 min
# Bacillus subtilis = test: Metabolic labelling with KDO-N3, click chemistry, fluorescence microscopy (negative control strain); type: cell-based; settings: Gram positive; KDO-N3 4 mM, 12 hours; A488-yne-Cu(I) click 60 min
# Shewanella oneidensis = test: as above; type: cell-based; settings: KDO-N3 4 mM, 12 hours, 28° C.; A488-yne-Cu(I) click 60 min
# [2] = mixture with E. coli, LB, 12 hours, 696 analyzed cells
# [3] = mixture with B. subtilis, LB, 12 hours, 696 analyzed cells
smiles,measurement,setting,value
"[N-]=[N+]=NC[C@@H](O)[C@@H](O)[C@H](O)[C@H](O)CC(=O)C(=O)O [KDO-N3, 8-azido-3,8-dideoxy-D-manno-octulosonic acid]",cell-surface labeling,[1],efficient and well defined cell-surface labeling
same,cell-surface labeling,S. typhimurium 12023,efficient and well defined cell-surface labeling
same,cell-surface labeling,E. coli 086,efficient and well defined cell-surface labeling
same,cell-surface labeling,"E. coli K12; KDO-N3 4 mM, 12 hours, A488-yne-Cu(I) click 60 min",efficient and well defined cell-surface labeling
same,labeling of bacteria (fluorescence),"E. coli K12; […], click with TGTA and A488-yne, after 5 min, control without KDO-N3 no signal",very bright labeling
same,location of fluorescence,"E. coli K12; after click labelling with A488-yne, 5 min",mostly evident around the cell periphery
same,cell-surface labeling,Staphylococcus aureus,no labeling
same,B. subtilis false positive,B. subtilis; 4 KDO-N3+ B. subtilis cells,about 2%
same,assimilation in B. subtilis cells of the mixture,B. subtilis; mixture with E. coli,not in cultivable B. subtilis cells
same,"KDO-N3+ cells, mCherry − (B. subtilis)",B. subtilis; [2],4
same,"KDO-N3− cells, mCherry − (B. subtilis)",B. subtilis; [2],166
same,E. coli KDO negative,"E. coli K12 sodA-mCherry; 9 cells, standard method error range about 10%",about 2%
same,assimilation in E. coli cells of the mixture,E. coli K12 sodA-mCherry; mixture with B. subtilis,assimilated in substantially only cultivable E. coli cells
same,"KDO-N3+ cells, mCherry + (E. coli)",E. coli K12 sodA-mCherry; [3],517
same,"KDO-N3− cells, mCherry + (E. coli)",E. coli K12 sodA-mCherry; [3],9
same,cell-surface labeling,Bacillus subtilis,no labeling
same,cell-surface labeling,Shewanella oneidensis,no labeling

# From patent publication US10571469B2, “Kit for labelling bacteria” (Centre National de la Recherche Scientifique (CNRS), priority 2012, dated 2020)
